2 molecules from patent US6297282A, “Substituted derivatives of benzosulphonamides as inhibitors of the enzyme cyclooxygenase II” (Nycomed Austria GmbH, priority 1997, dated 2001) can be followed below.

Experiment [1] has as its target T1, cyclooxygenase-II (human COX-2) (Homo sapiens, UniProt P35354).
T1 construct: endogenous in cells
T1 sequence (P35354 18-604): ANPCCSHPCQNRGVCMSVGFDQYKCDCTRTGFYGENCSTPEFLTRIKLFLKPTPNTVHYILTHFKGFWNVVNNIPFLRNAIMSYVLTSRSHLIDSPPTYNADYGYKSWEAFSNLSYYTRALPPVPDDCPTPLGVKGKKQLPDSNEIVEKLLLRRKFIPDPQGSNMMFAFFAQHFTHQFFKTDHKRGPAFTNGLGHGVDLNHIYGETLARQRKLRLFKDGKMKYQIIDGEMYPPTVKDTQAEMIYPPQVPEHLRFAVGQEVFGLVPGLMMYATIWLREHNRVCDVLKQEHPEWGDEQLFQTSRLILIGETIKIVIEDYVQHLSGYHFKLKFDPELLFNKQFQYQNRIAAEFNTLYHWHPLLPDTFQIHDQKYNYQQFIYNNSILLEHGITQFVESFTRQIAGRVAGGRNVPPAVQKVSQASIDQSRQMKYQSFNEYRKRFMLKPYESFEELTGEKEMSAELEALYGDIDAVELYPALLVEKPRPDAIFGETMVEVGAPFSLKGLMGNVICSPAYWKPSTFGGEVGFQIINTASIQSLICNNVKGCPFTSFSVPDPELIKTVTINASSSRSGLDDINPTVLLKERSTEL
As to the kind of experiment: Human COX-2 Test (LPS-stimulated human monocytoid cell line, arachidonic acid, ELISA of cyclooxygenase products). It counts as cell-based. The note with it: for IC50: LPS-stimulated human monocytoid cell line, half an hour incubation, then arachidonic acid 15 minutes, 37° C.; for COX I/COX II (selectivity): ratio of COX I IC50 to COX II IC50. The protocol:
Cells of a human monocytoid cell line were stimulated with lipopolysaccharide (LPS) (incubator at 37° C., 5% CO2 -enriched atmosphere and almost 100% atmospheric humidity), in order to induce COX-2. Following this, the culture medium (RPMI 1640, enriched with 10% FCS, 2 mM glutamine, 10000 U/ml penicillin, […] and 1 mM pyruvate) is refreshed and potential inhibitor substances of cyclooxygenase-II, dissolved in culture medium or in phosphate-buffered saline or in some other solvent compatible with cell cultures, are added and then incubated for half an hour as described above. Arachidonic acid is added by pipette and incubation is carried out for a further 15 minutes. The culture supernatant of the cells is removed and its content of products of cyclooxygenase metabolism (e.g. Prostaglandin E2, Prostaglandin F1a, Thromboxane B2) is measured by ELISA.

Experiment [2] addresses T2, cyclooxygenase-I (human COX-1) (Homo sapiens, UniProt P23219).
T2 construct: arachidonic acid-induced aggregation of washed human thrombocytes; endogenous in cells; host or cells: washed human thrombocytes (blood platelets)
The experiment in a line: Human COX-1 Test (inhibition of arachidonic acid-induced aggregation of washed human thrombocytes). The experiment is classed as cell-based. Particulars: arachidonic acid 10 μM final concentration, 37° C., test substance added 2 minutes before. The protocol:
Inhibition of the arachidonic acid-induced aggregation of washed human thrombocytes was used as a test system for an estimation of the inhibition of cyclooxygenase-I. A thrombocyte suspension at 37° C. was added to the test substances 2 minutes before addition of the arachidonic acid (10 μM final concentration) and the aggregation course was recorded via an aggregometer. With the assistance of a concentration-effect curve, the concentration of test substance was determined at which 50% aggregation was measured (IC50).

Each structure is given as a SMILES string.

T2 sequence (P23219 24-599): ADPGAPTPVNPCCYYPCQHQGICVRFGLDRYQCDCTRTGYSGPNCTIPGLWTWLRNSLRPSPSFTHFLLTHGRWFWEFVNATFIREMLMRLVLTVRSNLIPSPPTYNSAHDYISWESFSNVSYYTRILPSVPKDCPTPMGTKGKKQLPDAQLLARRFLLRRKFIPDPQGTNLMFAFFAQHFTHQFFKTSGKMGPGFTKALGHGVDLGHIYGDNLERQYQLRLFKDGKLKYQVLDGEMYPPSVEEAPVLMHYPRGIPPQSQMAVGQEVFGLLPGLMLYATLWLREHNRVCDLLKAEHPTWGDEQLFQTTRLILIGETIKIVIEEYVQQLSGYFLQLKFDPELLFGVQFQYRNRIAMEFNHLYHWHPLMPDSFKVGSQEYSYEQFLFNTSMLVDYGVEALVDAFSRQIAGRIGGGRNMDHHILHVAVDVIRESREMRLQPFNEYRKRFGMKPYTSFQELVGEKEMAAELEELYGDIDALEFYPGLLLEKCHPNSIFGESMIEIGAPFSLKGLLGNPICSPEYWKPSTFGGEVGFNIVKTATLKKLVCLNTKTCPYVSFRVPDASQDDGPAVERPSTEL

As to `C=CS(=O)(=O)Nc1ccc(S(N)(=O)=O)cc1Sc1ccc(Cl)cc1Cl` [Example 6, 3-(2,4-dichlorophenylthio)-4-vinylsulphonyl-amino-benzosulphonamide], in experiment [1], the half-maximal inhibitory concentration (IC50) is 0.1 µM and the “COX I/COX II (selectivity)” value turned out to be 200. Further, the IC50 in experiment [2] came to 20 µM.

For `CS(=O)(=O)Nc1ccc(S(N)(=O)=O)c(Cl)c1Sc1ccc(Cl)cc1Cl` [Example 1, 3-(2,4-Dichlorophenylthio)-2-chloro-4-methylsulphonylamino-benzosulphonamide], in experiment [1], the 50% inhibitory concentration (IC50) was 0.1 µM and the “COX I/COX II (selectivity)” value was found to be 250. In addition, the concentration for half-maximal inhibition (IC50) in experiment [2] was 25 µM.
